The structures appear in SMILES notation. Bounds are passed on as bounds.

This note sets out measurements from patent US9828379B2 (priority 2013, dated 2017).

The target in assay [1] is T1, FAAH (Mus musculus, UniProt O08914).
T1 sequence (O08914 1-579): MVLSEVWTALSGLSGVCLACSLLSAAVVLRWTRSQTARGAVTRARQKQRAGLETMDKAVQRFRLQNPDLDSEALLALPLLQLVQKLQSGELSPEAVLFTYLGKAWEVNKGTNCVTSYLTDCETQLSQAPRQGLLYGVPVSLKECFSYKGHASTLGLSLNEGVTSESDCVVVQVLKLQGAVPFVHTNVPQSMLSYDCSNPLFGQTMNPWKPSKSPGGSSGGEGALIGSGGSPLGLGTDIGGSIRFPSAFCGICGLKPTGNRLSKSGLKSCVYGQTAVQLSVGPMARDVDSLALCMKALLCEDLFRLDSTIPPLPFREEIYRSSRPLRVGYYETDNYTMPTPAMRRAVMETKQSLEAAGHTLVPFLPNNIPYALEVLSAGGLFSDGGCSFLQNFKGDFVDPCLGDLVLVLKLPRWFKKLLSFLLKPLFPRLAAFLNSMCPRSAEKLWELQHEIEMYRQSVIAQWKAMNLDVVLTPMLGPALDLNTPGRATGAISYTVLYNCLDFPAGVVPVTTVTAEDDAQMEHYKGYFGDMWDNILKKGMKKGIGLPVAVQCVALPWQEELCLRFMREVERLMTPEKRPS
Nature of the assay: In vitro competitive activity-based protein profiling (Table 2, % inhibition at 1 μM). Type of assay: biochemical. The note with it: read-out: % Inhibition at 1 μM FAAH.

Assay [2] concerns the target T2, ABHD6 (Mus musculus, UniProt Q8R2Y0).
T2 sequence (Q8R2Y0 1-336): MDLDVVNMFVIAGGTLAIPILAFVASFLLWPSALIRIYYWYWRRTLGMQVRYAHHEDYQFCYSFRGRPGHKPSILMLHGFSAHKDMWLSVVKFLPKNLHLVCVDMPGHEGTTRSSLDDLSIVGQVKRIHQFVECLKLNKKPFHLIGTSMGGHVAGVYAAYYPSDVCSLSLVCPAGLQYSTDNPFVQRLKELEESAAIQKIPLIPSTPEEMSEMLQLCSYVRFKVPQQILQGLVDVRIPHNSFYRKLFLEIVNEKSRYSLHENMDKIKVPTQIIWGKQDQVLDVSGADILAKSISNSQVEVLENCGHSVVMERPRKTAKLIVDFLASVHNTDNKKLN
The description is as above. The note with it: read-out: % Inhibition at 1 μM ABHD6. Type of assay: biochemical.

Assay [3] deals with T3, MAGL (Mus musculus, UniProt O35678).
T3 sequence (O35678 1-303): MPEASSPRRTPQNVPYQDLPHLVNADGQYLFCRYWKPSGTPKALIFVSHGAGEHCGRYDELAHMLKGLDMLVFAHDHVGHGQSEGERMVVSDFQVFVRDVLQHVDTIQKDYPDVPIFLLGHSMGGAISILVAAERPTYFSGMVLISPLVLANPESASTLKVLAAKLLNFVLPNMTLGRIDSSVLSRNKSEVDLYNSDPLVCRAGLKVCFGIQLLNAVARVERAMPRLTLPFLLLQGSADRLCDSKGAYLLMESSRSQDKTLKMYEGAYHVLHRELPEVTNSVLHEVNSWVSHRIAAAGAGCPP
The assay is described as above. Type of assay: biochemical. The settings on record: read-out: % Inhibition at 1 μM MAGL. The protocol:
After 30 min, FP—Rh (1.0 μL, 50 μM in DMSO) was added and the mixture was incubated for another 30 min at 37° C. Reactions were quenched with SDS loading buffer (50 μL-4×) and run on SDS-PAGE.
Cell lysates were diluted with mock proteomes for use in competitive ABPP experiments.

For assay [4], the target named is T2, ABHD6. Nature of the assay: biochemical. The note with it: in vitro competitive ABPP.
For assay [5], the target named is T1, FAAH. Briefly: biochemical. The settings on record: in vitro competitive ABPP.
The target of the next assay is T4, Mouse brain MAGL (Mus musculus, UniProt O35678).
T4 construct: from tissue; host or cells: brain of wild-type C57Bl/6J mice dosed by oral gavage
T4 sequence (O35678 1-303): T3 sequence (O35678 1-303)
Nature of the assay: Mouse brain proteomes from inhibitor treated mice (oral gavage, ABPP analysis). Type of assay: in vivo. The note with it: p.o., sacrificed 4 h following administration. As to the method:
After 30 min, FP—Rh (1.0 μL, 50 μM in DMSO) was added and the mixture was incubated for another 30 min at 37° C. Reactions were quenched with SDS loading buffer (50 μL-4×) and run on SDS-PAGE. Following gel imaging, serine hydrolase activity was determined by measuring fluorescent intensity of gel bands corresponding to MAGL, ABHD6 and FAAH using ImageJ 1.43 u software.
Inhibitors were administered to wild-type C57Bl/6J by oral gavage in a vehicle of polyethylene glycol. Each animal was sacrificed 4 h following administration and brain proteomes were prepared and analyzed according to previously established methods (See Niphakis, M. J., et al. (2011) ACS Chem. Neurosci. and Long, J. Z., et al. Nat. Chem. Biol. 5:37-44).

Assay [6] deals with T3, MAGL. Briefly: biochemical. The note with it: mouse; in vitro competitive ABPP; read-out: Mouse (IC50 value, nM) MAGL.

With `CC(C)c1cc(CN2CC3CN(C(=O)OC(C(F)(F)F)C(F)(F)F)CC3C2)n(C2CCCCC2)n1` (centres unmarked) [Example 61, 1,1,1,3,3,3-Hexafluoropropan-2-yl 5-[[1-cyclohexyl-3-(propan-2-yl)-1H-pyrazol-5-yl]methyl]-octahydropyrrolo[3,4-c]pyrrole-2-carboxylate], the values for the inhibition at 1 µM at FAAH [1], at ABHD6 [2] and on MAGL [3] were below 25%, 25 to 75% and above 75%, respectively. Further, the values for the IC50 on ABHD6 [4], on FAAH [5] and at MAGL [6] were 1000 to 10000 nM, above 10000 nM and below 100 nM, respectively. On Mouse brain MAGL, this compound came in with an inhibition at 5 mg/kg of at least 75%.
`CCn1cc(CN2CC3CN(C(=O)OC(C(F)(F)F)C(F)(F)F)CC3C2)c(-c2ccc(N3CCCC3)cc2)n1` (centres unmarked) [Example 67, 1,1,1,3,3,3-Hexafluoropropan-2-yl 5-([1-ethyl-3-[4-(pyrrolidin-1-yl)phenyl]-1H-pyrazol-4-yl]methyl)-octahydropyrrolo[3,4-c]pyrrole-2-carboxylate]: the inhibition at 1 µM was below 25% at FAAH [1], below 25% on ABHD6 [2] and above 75% at MAGL [3]. In addition, the results for the IC50 at ABHD6 [4], on FAAH [5] and at MAGL [6] were 1000 to 10000 nM, 1000 to 10000 nM and below 100 nM, respectively. This compound returned an inhibition at 5 mg/kg against Mouse brain MAGL of 25 to 75%.
Consider `Cc1cccc(CN2CC3CN(C(=O)OC(C(F)(F)F)C(F)(F)F)CC3C2)c1N1CCC2(CCOC2)C1` (centres unmarked) [Example 40, 1,1,1,3,3,3-Hexafluoropropan-2-yl 5-[(3-methyl-2-[2-oxa-7-azaspiro[4.4]nonan-7-yl]phenyl)methyl]-octahydropyrrolo[3,4-c]pyrrole-2-carboxylate], for which the inhibition at 1 µM on FAAH [1] is below 25%; on ABHD6 [2] it was below 25%; at MAGL [3] it was above 75%. For the same compound, the IC50 at ABHD6 [4] was 1000 to 10000 nM; on FAAH [5], 1000 to 10000 nM; at MAGL [6] it was below 100 nM. Moreover, the inhibition at 5 mg/kg against Mouse brain MAGL fell in the range of 25 to 75%.
In the case of `O=C(OC(C(F)(F)F)C(F)(F)F)N1CC2CN(Cc3ccc(Cl)cc3N3CCC(C(=O)N4CCCC4)CC3)CC2C1` (centres unmarked) [Example 37, 1,1,1,3,3,3-Hexafluoropropan-2-yl 5-[(4-chloro-2-[4-[(pyrrolidin-1-yl)carbonyl]piperidin-1-yl]phenyl)methyl]-octahydropyrrolo[3,4-c]pyrrole-2-carboxylate], the inhibition at 1 µM on FAAH [1] is 25 to 75%; on ABHD6 [2], below 25%; on MAGL [3] it was above 75%. For the same compound, the half-inhibitory concentration (IC50) at ABHD6 [4] is 1000 to 10000 nM; at FAAH [5], 1000 to 10000 nM; at MAGL [6], below 100 nM. Also, the inhibition at 5 mg/kg against Mouse brain MAGL is at most 25%.
With `CCn1cc(CN2CC3CN(C(=O)OC(C(F)(F)F)C(F)(F)F)CC3C2)c(C(=O)NCc2ccccc2)n1` (centres unmarked) [Example 78, 1,1,1,3,3,3-Hexafluoropropan-2-yl 5-((3-(benzylcarbamoyl)-1-ethyl-1H-pyrazol-4-yl)methyl)hexahydropyrrolo[3,4-c]pyrrole-2(1H)-carboxylate], the inhibition at 1 µM is below 25% on FAAH [1], 25 to 75% at ABHD6 [2] and above 75% at MAGL [3]. Further, the values for the half-maximal inhibitory concentration (IC50) at ABHD6 [4], at FAAH [5] and on MAGL [6] were 1000 to 10000 nM, above 10000 nM and below 100 nM, respectively. The inhibition at 5 mg/kg on Mouse brain MAGL is 25 to 75%.
As to `CCn1ncc(CN2CC3CN(C(=O)OC(C(F)(F)F)C(F)(F)F)CC3C2)c1C(=O)NCCc1cccc(Cl)c1` (centres unmarked) [Example 180, 1,1,1,3,3,3-hexafluoropropan-2-yl 5-((5-((3-chlorophenethyl)carbamoyl)-1-ethyl-1H-pyrazol-4-yl)methyl)hexahydropyrrolo[3,4-c]pyrrole-2(1H)-carboxylate], the inhibition at 1 µM at FAAH [1] is below 25%; on ABHD6 [2] it was below 25%; on MAGL [3] it was above 75%. Moreover, the IC50 is 1000 to 10000 nM at ABHD6 [4], above 10000 nM on FAAH [5] and below 100 nM on MAGL [6]. This compound also registered an inhibition at 5 mg/kg against Mouse brain MAGL of at most 25%.
As to `O=C(OC(C(F)(F)F)C(F)(F)F)N1CC2CN(Cc3ccc(Cl)cc3N3CCOC4CCCC43)CC2C1` (centres unmarked) [Example 4, 1,1,1,3,3,3-Hexafluoropropan-2-yl 5-(4-chloro-2-(hexahydrocyclopenta[b][1,4]oxazin-4(4aH)-yl)benzyl)hexahydropyrrolo[3,4-c]pyrrole-2(1H)-carboxylate], the inhibition at 1 µM at FAAH [1] was below 25%; on ABHD6 [2] it was below 25%; at MAGL [3], above 75%. Besides, the IC50 lay in the range of 1000 to 10000 nM at ABHD6 [4], 1000 to 10000 nM on FAAH [5] and 100 to 1000 nM on MAGL [6]. The compound further returned an inhibition at 5 mg/kg on Mouse brain MAGL of at most 25%.
`O=C(OC(C(F)(F)F)C(F)(F)F)N1CC2CN(Cc3cccc(Cl)c3N3CC[C@H](CF)C3)CC2C1` (stereo partly drawn) [Example 173, 1,1,1,3,3,3-hexafluoropropan-2-yl 5-([3-chloro-2-[(3S)-3-(fluoromethyl)pyrrolidin-1-yl]phenyl]methyl)-octahydropyrrolo[3,4-c]pyrrole-2-carboxylate]: the inhibition at 1 µM is below 25% at FAAH [1], 25 to 75% on ABHD6 [2] and above 75% on MAGL [3]. Besides, the IC50 on ABHD6 [4] is above 10000 nM; on FAAH [5] it was 1000 to 10000 nM; on MAGL [6], below 100 nM. The same compound registered an inhibition at 5 mg/kg on Mouse brain MAGL of 25 to 75%.
With `Cn1cc(CN2CC3CN(C(=O)OC(C(F)(F)F)C(F)(F)F)CC3C2)c(-c2ccccc2)n1` (centres unmarked) [Example 50, 1,1,1,3,3,3-Hexafluoropropan-2-yl 5-((1-methyl-3-phenyl-1H-pyrazol-4-yl)methyl)hexahydropyrrolo[3,4-c]pyrrole-2(1H)-carboxylate], the values for the inhibition at 1 µM at FAAH [1], at ABHD6 [2] and at MAGL [3] were below 25%, 25 to 75% and above 75%, respectively. In addition, the 50% inhibitory concentration (IC50) was 1000 to 10000 nM on ABHD6 [4], 1000 to 10000 nM at FAAH [5] and below 100 nM on MAGL [6]. This compound also came in with an inhibition at 5 mg/kg against Mouse brain MAGL of 25 to 75%.
As for `Cc1c(CN2CC3CN(C(=O)OC(C(F)(F)F)C(F)(F)F)CC3C2)cccc1N1CCOCC1` (centres unmarked) [Example 47, 1,1,1,3,3,3-Hexafluoropropan-2-yl 5-[[2-methyl-3-(morpholin-4-yl)phenyl]methyl]-octahydropyrrolo[3,4-c]pyrrole-2-carboxylate], the values for the inhibition at 1 µM at FAAH [1], at ABHD6 [2] and at MAGL [3] were 25 to 75%, 25 to 75% and above 75%, respectively. Moreover, the concentration for half-maximal inhibition (IC50) was 1000 to 10000 nM on ABHD6 [4], 1000 to 10000 nM at FAAH [5] and below 100 nM on MAGL [6]. Moreover, the inhibition at 5 mg/kg on Mouse brain MAGL is at least 75%.
`O=C(OC(C(F)(F)F)C(F)(F)F)N1CC2CN(Cc3cccc(Cl)c3N3CCC(F)CC3)CC2C1` (centres unmarked) [Example 159, 1,1,1,3,3,3-hexafluoropropan-2-yl 5-[[3-chloro-2-(4-fluoropiperidin-1-yl)phenyl]methyl]-octahydropyrrolo[3,4-c]pyrrole-2-carboxylate]: the inhibition at 1 µM on FAAH [1] was below 25%; on ABHD6 [2], below 25%; on MAGL [3], above 75%. The IC50 is 1000 to 10000 nM at ABHD6 [4], above 10000 nM on FAAH [5] and below 100 nM at MAGL [6]. The compound also showed an inhibition at 5 mg/kg at Mouse brain MAGL of at most 25%.
